{
  "source": "patent US6548072B1",
  "about": "“Skin care compositions containing an organic extract of chick pea” (Chesebrough-Pond's USA Co., division of Conopco, Inc., priority 1997, dated 2003)",
  "key": {"piglet epidermal cells": {"test_system": "piglet epidermal cells", "assay": "Piglet skin organ culture, 3H-thymidine incorporation into the epidermis", "format": "cell-based, pig", "text": "Pig skin is morphologically and biochemically similar to human skin and is therefore used commonly for testing the effects of materials for, human topical use. Fresh shaved skin from piglets was obtained from the local slaughter house, washed with Dove® Soap and dermatomed at 200μ thickness to obtain the top epidermis and dermal layer. Uniform punch biopsies of the dermatomed pig skin was taken using a 7 mm punch. The biopsies were washed in medium containing high antibiotic/antimycotic mix(Kanamycin and penicillin and streptomycin from Gibco) and incubated for 3 days in high glucose DMEM medium containing hydrocortisone, L-glutamine, antibiotic and antimycotic in the absence of serum in transwell plates, 3 biopsies per well. The medium was fed from the bottom of the transwell so that the epidermal side of the biopsies was in contact with air. On the 3rd day, the medium was changed to fresh medium, and the biopsies were exposed to the various concentrations of various actives in 1 μl of DMSO, as indicated in Table 4. 3 days later, medium was changed, actives readded and the biopsies were labeled with 10 μCi of 3H thymidine per well. After washing the biopsies in PBS, the epidermis was split from the dermis by incubating the biopsies for 24 hrs in 2 M sodium bromide solution with shaking. The epidermis was peeled off from the dermis using a tweezer and dissolved in1 ml of 0.5N NaOH with overnight incubation at 60 ° C. 200 μl of the dissolved epidermis was used for scintillation counting to determine the amount of ^3H thymidine incorporation into the epidermis. The data was calculated as mean cpm for at least 4 replicates, and was also calculated as % of control biopsies which received no actives."}, "ZR75 cells": {"test_system": "ZR75 cells", "assay": "3H-thymidine incorporation (DNA synthesis / proliferation) in ZR75 cells, test for estrogen-like activity", "format": "cell-based, human", "settings": "for ZR 75 DNA synthesis (% of Control): Experiment 1; for % of Control / cpm ± SD: 10 nM", "text": "The incorporation of ^3H-thymidine by cultured cells was used as an assay of cell proliferation (ZR75 or keratinocyte). Thymidine is one of four deoxynucleosides which are the monomeric units of DNA. Prior to cell division of a somatic cell, the complete genome of the cell undergoing cell division is replicated. This involves large scale DNA synthesis by the cell and enables both daughter cells to receive identical copies of the genetic material. When ^3H-thymidine is included in the culture media of cells which are synthesizing DNA in preparation for cell division then the labeled thymidine is incorporated into the newly synthesized DNA. The extent of incorporation of ^3H-thymidine into a population of cells is proportional to the rate of DNA synthesis. by this population of cells and therefore an indication of their cellular proliferation.\nZR75 cell line is a ductal breast carcinoma cell line, originally isolated from malignant mammary epithelium of a person (Engel et al., Human breast carcinoma cells in continuous culture: A review., Cancer Res., 38: 4327-4339, 1978) This cell line contains receptors for estrogen, progesterone and other steroid hormones, but responds through an increase in proliferation only to estrogen. The cell line contains high affinity estrogen-specific receptors. Therefore, this cell line is used for testing estrogen-like activity (Markiewicz et al., In vitro bioassays of non-steroidal phytoestrogens, J. Steroid Biochem. Molec. Biol., 45: 399-405, 1993).\n1. ZR75 cells (from American Type Culture Collection, Rockville, Md.) were grown in RPMT1640 media (from Gibco Life Technologies) with 10% fetal bovine serum (FBS), 100 units penicillin per ml and 100 units of streptomycin per ml. […] The. cells were seeded at a density of one million per 75 cm2 flask. For the experiment, the cells were seeded in 24 well plates at 100,000 cells per ml per well.\n2. After growing for 24 hours, the media was removed, the cells were washed with PBS and 1 ml of RPMI 1640 without serum (but with streptomycin and penicillin) was added. Stock solutions of chick pea extract in dimethyl sulfoxide. (DMSO) and estradiol in water were prepared. […] After another 24 hours, […] of [methyl-3H] thymidine was added to each well. The media was removed after 24 hours. The cells were washed once in PBS, the PBS was removed completely and the cells were left on ice to incubate with 1 ml per well of10% TCA (trichlioroacetic acid) for 30 minutes. The plates were washed 3 times with 5% TCA to remove all traces of thymidine which wasn't incorporated into the cells. 500 μl of 0.1M sodium hydroxide was added to each well and the plates were incubated at room temperature for at least 30 minutes. 250 μl of each sample was transferred to scintillation vials and after adding 5 ml of counting fluid, the vials were counted for 5 minutes each on a setting for tritium. […] Values were expressed as mean of triplicate wells ± standard deviation."}},
  "data": [
    {"smiles": "O=c1c(-c2ccc(O)cc2)coc2cc(O)ccc12", "note": "[Daidzein, daidzein]", "values": [
      {"measurement": "proliferation of piglet epidermal cells, in words", "setting": "piglet epidermal cells", "value": "more effective than the natural hormone estradiol"},
      {"measurement": "% of Control", "setting": "piglet epidermal cells; Experiment 1, 1 μg/ml", "value": "227 ± 24.4 % of Control"},
      {"measurement": "cpm ± SD", "setting": "piglet epidermal cells; Experiment 1, 1 μg/ml", "value": "8599 ± 927", "unit": "cpm"},
      {"measurement": "% of Control", "setting": "piglet epidermal cells; Experiment 1, 10 μg/ml", "value": "292 ± 76.5 % of Control"},
      {"measurement": "cpm ± SD", "setting": "piglet epidermal cells; Experiment 1, 10 μg/ml", "value": "11065 ± 2901", "unit": "cpm"}
    ]},
    {"smiles": "C[C@]12CC[C@@H]3c4ccc(O)cc4CC[C@H]3[C@@H]1CC[C@@H]2O", "note": "[Estradiol, estradiol]", "values": [
      {"measurement": "ZR 75 DNA synthesis (% of Control)", "setting": "ZR75 cells; 0.01 nM", "value": "117 ± 19.7 % of Control"},
      {"measurement": "ZR 75 DNA synthesis (% of Control)", "setting": "ZR75 cells; 0.1 nM", "value": "106 ± 16.3 % of Control"},
      {"measurement": "ZR 75 DNA synthesis (% of Control)", "setting": "ZR75 cells; 1.0 nM", "value": "162 ± 3.2 % of Control"},
      {"measurement": "ZR 75 DNA synthesis (% of Control)", "setting": "ZR75 cells; 10.0 nM", "value": "267 ± 15.1 % of Control"},
      {"measurement": "ZR 75 DNA synthesis (% of Control)", "setting": "ZR75 cells; 100 nM", "value": "203 ± 51.2 % of Control"},
      {"measurement": "ZR 75 DNA synthesis (% of Control)", "setting": "ZR75 cells; 1000 nM", "value": "178 ± 20.1 % of Control"},
      {"measurement": "% of Control", "setting": "ZR75 cells; Experiment 2", "value": "839 ± 27 % of Control"},
      {"measurement": "cpm ± SD", "setting": "ZR75 cells; Experiment 2", "value": "122254 ± 3940", "unit": "cpm"},
      {"measurement": "% of Control", "setting": "ZR75 cells; Experiment 3", "value": "211 ± 7.6 % of Control"},
      {"measurement": "cpm ± SD", "setting": "ZR75 cells; Experiment 3", "value": "30158 ± 1087", "unit": "cpm"},
      {"measurement": "concentration that increased DNA synthesis of ZR75 cells", "setting": "ZR75 cells; Table 1", "value": "≥ 1", "unit": "nM"},
      {"measurement": "% of Control", "setting": "piglet epidermal cells; Experiment 1, 1 nM", "value": "58.9 ± 24.4 % of Control"},
      {"measurement": "cpm ± SD", "setting": "piglet epidermal cells; Experiment 1, 1 nM", "value": "2690 ± 1113", "unit": "cpm"},
      {"measurement": "% of Control", "setting": "piglet epidermal cells; Experiment 1, 10 nM", "value": "113 ± 24 % of Control"},
      {"measurement": "cpm ± SD", "setting": "piglet epidermal cells; Experiment 1, 10 nM", "value": "5190 ± 1096", "unit": "cpm"},
      {"measurement": "% of Control", "setting": "piglet epidermal cells; Experiment 1, 100 nM", "value": "39.0 ± 32.6 % of Control"},
      {"measurement": "cpm ± SD", "setting": "piglet epidermal cells; Experiment 1, 100 nM", "value": "1757 ± 1492", "unit": "cpm"},
      {"measurement": "% of Control", "setting": "piglet epidermal cells; Experiment 2, 1 nM", "value": "196 ± 67.7 % of Control"},
      {"measurement": "cpm ± SD", "setting": "piglet epidermal cells; Experiment 2, 1 nM", "value": "2273 ± 783", "unit": "cpm"},
      {"measurement": "% of Control", "setting": "piglet epidermal cells; Experiment 2, 10 nM", "value": "330 ± 101 % of Control"},
      {"measurement": "cpm ± SD", "setting": "piglet epidermal cells; Experiment 2, 10 nM", "value": "3817 ± 1175", "unit": "cpm"},
      {"measurement": "% of Control", "setting": "piglet epidermal cells; Experiment 2, 100 nM", "value": "241 ± 65 % of Control"},
      {"measurement": "cpm ± SD", "setting": "piglet epidermal cells; Experiment 2, 100 nM", "value": "2785 ± 751", "unit": "cpm"}
    ]},
    {"smiles": "COc1ccc(-c2coc3cc(O)ccc3c2=O)cc1", "note": "[Formononetin, formononetin]", "values": [
      {"measurement": "% of Control", "setting": "piglet epidermal cells; Experiment 1, 1 μg/ml", "value": "126 ± 33.2 % of Control"},
      {"measurement": "cpm ± SD", "setting": "piglet epidermal cells; Experiment 1, 1 μg/ml", "value": "4770 ± 1260", "unit": "cpm"},
      {"measurement": "% of Control", "setting": "piglet epidermal cells; Experiment 1, 10 μg/ml", "value": "174 ± 76.1 % of Control"},
      {"measurement": "cpm ± SD", "setting": "piglet epidermal cells; Experiment 1, 10 μg/ml", "value": "6608 ± 2886", "unit": "cpm"}
    ]}
  ]
}
